# Results: patent publication US12390470B2, “1-methylxanthine-based bioactive composition and method of use thereof” (Ingenious Ingredients, LP, priority 2021, dated 2025)
# Experiments:
# [1] = tested on: Brain-derived neurotrophic factor (BDNF); assay: BDNF level in young and old rats; assay type: in vivo
# Protocol: (§1) Twenty-four young (6-8 Week) and twenty-four old (14-16 Months) Swiss Albino Wistar rats were housed in an animal room at a constant temperature (22±3° C.) and humidity (30%-70%) under a 12:12 h light-dark cycle with standard laboratory diet (Purina 5L79, Rat and Mouse 18% protein; PMI Nutrition International, Brentwood, MO, USA). Distilled water was provided ad libitum. All animal experiments were reviewed and approved by the Institutional Animal Ethical Committee (IAEC) of Radiant Research Services Pvt. Ltd (Bangalore, India). All research was conducted in accordance with the guidelines of the committee for the purpose of control and supervision of experiments on animals.
# (§2) After one week of acclimation, the animals were randomly divided by body weight and age into six groups (n=8 per group in each test) for oral treatment once a day, at approximately same time each day (±1 hour), for 10 consecutive days: (1) vehicle control or (2) 1-methylxanthine or (3) 1-methylxanthine plus paraxanthine. The dose administered to the rat was calculated using US Food and Drug Administration for human equivalence doses (HED), assuming a human weight of 60 kg. […] Food intake was monitored daily while water intake was ad libitum. […] Body weight was recorded weekly. […]
# [2] = Brain weight in young and aged rats; assay type: in vivo
# Protocol: as §1, §2
# [3] = tested on: female wistar rats; settings: rat, in vivo, 14 days
# Protocol: An acute oral toxicity study of 1-Methylxanthine) was conducted in female wistar rats in accordance with OECD 423 guidelines. Rats were administered a single dose of 2,000 mg/kg orally and then observed individually for the first four hours, then over a period of 24 hours and once daily for 14 days. General behavior, adverse effects and mortality were observed throughout the experimental period. Body weights were recorded on test day 0 (prior to administration), day 3, day 7 and day 14. All the animals were necropsied and examined macroscopically. All the surviving animals had gained body weight by day 14 as compared to day 0. […] Based on the results, the median lethal dose of test substance in female rats after single oral treatment is 2,000 mg/kg body weight and is classified as category 5 and safe.
# [4] = tested on: participants; assay: Resting energy expenditure, placebo-controlled crossover; assay type: in vivo, human
# Protocol: Two participants were assigned in a randomized, double-blind, placebo-controlled, crossover fashion to ingest a non-energetic placebo (maltodextrin) or a 200 mg dose of 1-methylxanthine (1-MX). All supplements were orally ingested with 8 fluid ounces of cold tap water. Resting Energy Expenditure was measured at baseline, 30, 60, 90, 120 and 180 minutes after ingestion.
# [5] = tested on: participant; assay: Concentration by Visual Analog Scale; assay type: in vivo, human; set-up: Concentration (Visual Analog Scale): scale not given here
# Protocol: One participant ingested 200 mg dose of 1-methylxanthine (1-MX) orally with 8 fluid ounces of cold tap water. Concentration was measured by Visual Analog Scale (VAS) at baseline, 30, 60, 90, 120 and 180 minutes after ingestion.
# [6] = tested on: participant; assay: Wakefulness by Visual Analog Scale; assay type: in vivo, human; settings: Person two
# Protocol: One participant ingested a non-energetic placebo (maltodextrin) followed by 200 mg dose of 1-methylxanthine (1-MX) one week later, orally with 8 fluid ounces of cold tap water. Wakefulness was measured by Visual Analog Scale (VAS) at baseline, 30, 60, 90, 120 and 180 minutes after ingestion.
# [7] = Person one, time 0, 200 mg oral
# [8] = Person two, time 0, 200 mg oral
smiles,measurement,setting,value
"Cn1c(=O)[nH]c2nc[nH]c2c1=O [1-methylxanthine, 1-Methyl-3H-purine-2,6-dione]",BDNF levels,[1]; old rats,793.81 ± 33.85 pg/mL
same,BDNF levels,[1]; young rats,869.04 ± 32.79 pg/mL
same,Brain weight,[2]; aged animals,2 ± 0.074 g
same,Brain weight,[2]; young animals,1.73 ± 0.027 g
same,toxicity classification,[3],category 5
same,median lethal dose,[3]; po,"2,000 mg/kg body weight"
same,Resting Energy Expenditure MEAN,[4]; Average,"1,897 kcals/day"
same,Resting Energy Expenditure MEAN,[4]; Person one,"2,006 kcals/day"
same,Resting Energy Expenditure,"[4]; Person one, 30 min",2050 kcals/day
same,Resting Energy Expenditure,"[4]; Person one, 60 min",1975 kcals/day
same,Resting Energy Expenditure,"[4]; Person one, 90 min",1988 kcals/day
same,Resting Energy Expenditure,"[4]; Person one, 120 min",1964 kcals/day
same,Resting Energy Expenditure,"[4]; Person one, 180 min",2053 kcals/day
same,Resting Energy Expenditure,[4]; [7],2017 kcals/day
same,Resting Energy Expenditure MEAN,[4]; Person two,"1,788 kcals/day"
same,Resting Energy Expenditure,"[4]; Person two, 30 min",1789 kcals/day
same,Resting Energy Expenditure,"[4]; Person two, 60 min",1790 kcals/day
same,Resting Energy Expenditure,"[4]; Person two, 90 min",1777 kcals/day
same,Resting Energy Expenditure,"[4]; Person two, 120 min",1912 kcals/day
same,Resting Energy Expenditure,"[4]; Person two, 180 min",1670 kcals/day
same,Resting Energy Expenditure,[4]; [8],1769 kcals/day
same,Concentration (VAS) MEAN (30-180),[5]; Average,61.2
same,Concentration (VAS) MEAN (30-180),[5]; Person one,54.4
same,Concentration (Visual Analog Scale),"[5]; Person one, 30 min",60
same,Concentration (Visual Analog Scale),"[5]; Person one, 60 min",61
same,Concentration (Visual Analog Scale),"[5]; Person one, 90 min",50
same,Concentration (Visual Analog Scale),"[5]; Person one, 120 min",50
same,Concentration (Visual Analog Scale),"[5]; Person one, 180 min",51
same,Concentration (Visual Analog Scale),[5]; [7],50
same,Concentration (VAS) MEAN (30-180),[5]; Person two,68.0
same,Concentration (Visual Analog Scale),"[5]; Person two, 30 min",65
same,Concentration (Visual Analog Scale),"[5]; Person two, 60 min",65
same,Concentration (Visual Analog Scale),"[5]; Person two, 90 min",65
same,Concentration (Visual Analog Scale),"[5]; Person two, 120 min",75
same,Concentration (Visual Analog Scale),"[5]; Person two, 180 min",70
same,Concentration (Visual Analog Scale),[5]; [8],65
same,Wakefulness (VAS) MEAN,[6],69.0
same,Wakefulness (Visual Analog Scale),[6]; 30 min,65
same,Wakefulness (Visual Analog Scale),[6]; 60 min,65
same,Wakefulness (Visual Analog Scale),[6]; 90 min,65
same,Wakefulness (Visual Analog Scale),[6]; 120 min,75
same,Wakefulness (Visual Analog Scale),[6]; 180 min,75
same,Wakefulness (Visual Analog Scale),"[6]; time 0, 200 mg oral",60
